Measurements reported in patent EP0527889B1, “QUINOLIZINONE TYPE COMPOUNDS” (priority 1990, dated 1991).
Converted amounts (≈) assume the structure as drawn. Counter-ions that a name gives are not always drawn.

How the values were obtained:
Assay in all cases: In vitro antibacterial activity, MIC by agar dilution
Assay type in all cases: cell-based
Details in all cases: BHI agar, 35-37°C, 20-24 hours, unit assumed
Escherichia coli SS = tested on: Escherichia coli SS
Procedure: (§1) Each plate was inoculated with 1:100 (or 1:10 for slow growing strains, primarily Micrococcus and Streptococcus) dilutions of up to 32 different microorganisms, using a Steers replicator block calibrated to deliver approximately 10^4 colony forming units (CFUs). The inoculated plates were incubated at from about 35°C to about 37°C for approximately 20-24 hours. In addition, a control plate using BHI agar containing no test compound was prepared and incubated at the beginning and at the end of each test. Ciprofloxacin was used as the control antibiotic.
(§2) The MIC was defined as the lowest concentration of test compound yielding no growth (a slight haze or sparsely isolated colonies at the inoculum spot) as compared to the growth control containing no test compound.

Escherichia coli DC-2 = tested on: Escherichia coli DC-2
Procedure: as §1, §2

[1] = tested on: Pseudomonas aeruginosa 5263
Procedure: as §1, §2

[2] = tested on: Staphylococcus aureus A5177
Procedure: as §1, §2

[3] = tested on: Micrococcus luteus ATCC 4698
Procedure: as §1, §2

Escherichia coli KNK 437 = tested on: Escherichia coli KNK 437
Procedure: as §1, §2

Escherichia coli H560 = tested on: Escherichia coli H560
Procedure: as §1, §2

[4] = tested on: Pseudomonas aeruginosa K799/61
Procedure: as §1, §2

[5] = tested on: Staphylococcus aureus A-5278
Procedure: as §1, §2

[6] = tested on: Staphylococcus aureus 642A
Procedure: as §1, §2

[7] = tested on: Streptococcus pyrogenes EES61
Procedure: as §1, §2

[8] = tested on: Streptococcus bovis A5169
Procedure: as §1, §2

[9] = tested on: Pseudomonas aeruginosa 2862
Procedure: as §1, §2

[10] = tested on: Enterobacter aerogenes ATCC 13048
Procedure: as §1, §2

[11] = tested on: Acinetobacter calcoaceticus CMX 669
Procedure: as §1, §2

[12] = tested on: Staphylococcus aureus NCTC 10649
Procedure: as §1, §2

[13] = tested on: Enterococcus faecium ATCC 8043
Procedure: as §1, §2

[14] = tested on: Pseudomonas aeruginosa BMH10
Procedure: as §1, §2

[15] = tested on: Micrococcus luteus ATCC 9341
Procedure: as §1, §2

[16] = tested on: Staphylococcus aureus CMX 553
Procedure: as §1, §2

[17] = tested on: Streptococcus pyrogenes 2548 INDUC
Procedure: as §1, §2

[18] = tested on: Providencia stuartii CMX 640
Procedure: as §1, §2

[19] = tested on: Streptococcus pyrogenes CONST
Procedure: as §1, §2

Pseudomonas cepacia 296I = tested on: Pseudomonas cepacia 296I
Procedure: as §1, §2

[20] = tested on: Staphylococcus aureus ATCC 6538P
Procedure: as §1, §2

[21] = tested on: Staphylococcus aureus 1775
Procedure: as §1, §2

[22] = tested on: Klebsiella pneumoniae ATCC 8045
Procedure: as §1, §2

Escherichia coli JUHL = tested on: Escherichia coli JUHL
Procedure: as §1, §2

[23] = tested on: Pseudomonas aeruginosa K799/WT
Procedure: as §1, §2

[24] = tested on: Streptococcus agalactaciae CMX 508
Procedure: as §1, §2

[25] = tested on: Pseudomonas aeruginosa A5007
Procedure: as §1, §2

[26] = tested on: Staphylococcus epidermidis 3519
Procedure: as §1, §2

| SMILES | MIC values (Escherichia coli SS) | MIC values (Escherichia coli DC-2) | MIC values [1] | MIC values [2] | MIC values [3] | MIC values (Escherichia coli KNK 437) | MIC values (Escherichia coli H560) | MIC values [4] | MIC values [5] | MIC values [6] | MIC values [7] | MIC values [8] | MIC values [9] | MIC values [10] | MIC values [11] | MIC values [12] | MIC values [13] | MIC values [14] | MIC values [15] | MIC values [16] | further results |
| --- | --- | --- | --- | --- | --- | --- | --- | --- | --- | --- | --- | --- | --- | --- | --- | --- | --- | --- | --- | --- | --- |
| CN1CCN(c2nc3c(C4CC4)cc(C(=O)O)c(=O)n3cc2F)CC1 [Example 163, 9-Cyclopropyl-3-fluoro-2-(4-methylpiperazin-1-yl)-6H-6-oxo-pyrido[1,2-a]pyrimidine-7-carboxylic acid] | 0.1 µg/mL (≈ 0.289 µM) | 6.2 µg/mL (≈ 17.9 µM) | 100 µg/mL (≈ 289 µM) | 1.56 µg/mL (≈ 4.5 µM) | 12.5 µg/mL (≈ 36.1 µM) | 3.1 µg/mL (≈ 8.95 µM) | 0.1 µg/mL (≈ 0.289 µM) | 1.56 µg/mL (≈ 4.5 µM) | 1.56 µg/mL (≈ 4.5 µM) | 1.56 µg/mL (≈ 4.5 µM) | 12.5 µg/mL (≈ 36.1 µM) | 50 µg/mL (≈ 144 µM) | > 100 µg/mL | 0.39 µg/mL (≈ 1.13 µM) | 0.39 µg/mL (≈ 1.13 µM) | 0.78 µg/mL (≈ 2.25 µM) | 12.5 µg/mL (≈ 36.1 µM) | 1.56 µg/mL (≈ 4.5 µM) | 25 µg/mL (≈ 72.2 µM) | 1.56 µg/mL (≈ 4.5 µM) | MIC values [17]: 12.5 µg/mL (≈ 36.1 µM); MIC values [18]: 50 µg/mL (≈ 144 µM); MIC values [19]: 12.5 µg/mL (≈ 36.1 µM); MIC values (Pseudomonas cepacia 296I): 12.5 µg/mL (≈ 36.1 µM); MIC values [20]: 1.56 µg/mL (≈ 4.5 µM); MIC values [21]: 100 µg/mL (≈ 289 µM); MIC values [22]: 0.1 µg/mL (≈ 0.289 µM); MIC values (Escherichia coli JUHL): 0.2 µg/mL (≈ 0.577 µM); MIC values [23]: 3.1 µg/mL (≈ 8.95 µM); MIC values [24]: 12.5 µg/mL (≈ 36.1 µM); MIC values [25]: 3.1 µg/mL (≈ 8.95 µM); MIC values [26]: 1.56 µg/mL (≈ 4.5 µM) |
| O=C(O)c1cc(C2CC2)c2nc(N3CCNCC3)c(F)cn2c1=O [Example 164, 9-Cyclopropyl-3-fluoro-2-(piperazin-1-yl)-6H-6-oxo-pyrido[1,2-a]pyrimidine-7-carboxylic acid] | 0.02 µg/mL (≈ 0.0602 µM) | 1.56 µg/mL (≈ 4.69 µM) | 100 µg/mL (≈ 301 µM) | 1.56 µg/mL (≈ 4.69 µM) | 6.2 µg/mL (≈ 18.7 µM) | 1.56 µg/mL (≈ 4.69 µM) | 0.1 µg/mL (≈ 0.301 µM) | 0.1 µg/mL (≈ 0.301 µM) | 1.56 µg/mL (≈ 4.69 µM) | 1.56 µg/mL (≈ 4.69 µM) | 12.5 µg/mL (≈ 37.6 µM) | 12.5 µg/mL (≈ 37.6 µM) | 100 µg/mL (≈ 301 µM) | 0.05 µg/mL (≈ 0.15 µM) | 0.39 µg/mL (≈ 1.17 µM) | 1.56 µg/mL (≈ 4.69 µM) | 12.5 µg/mL (≈ 37.6 µM) | 0.39 µg/mL (≈ 1.17 µM) | 12.5 µg/mL (≈ 37.6 µM) | 1.56 µg/mL (≈ 4.69 µM) | MIC values [17]: 12.5 µg/mL (≈ 37.6 µM); MIC values [18]: 12.5 µg/mL (≈ 37.6 µM); MIC values [19]: 12.5 µg/mL (≈ 37.6 µM); MIC values (Pseudomonas cepacia 296I): 3.1 µg/mL (≈ 9.33 µM); MIC values [20]: 0.78 µg/mL (≈ 2.35 µM); MIC values [21]: 50 µg/mL (≈ 150 µM); MIC values [22]: 0.05 µg/mL (≈ 0.15 µM); MIC values (Escherichia coli JUHL): 0.05 µg/mL (≈ 0.15 µM); MIC values [23]: 0.39 µg/mL (≈ 1.17 µM); MIC values [24]: 12.5 µg/mL (≈ 37.6 µM); MIC values [25]: 0.39 µg/mL (≈ 1.17 µM); MIC values [26]: 1.56 µg/mL (≈ 4.69 µM) |
| NC1CCN(c2nc3c(-c4c(F)c(F)c(F)c(F)c4F)cc(C(=O)O)c(=O)n3cc2F)C1 (stereo not drawn) [Example 172, 2-(3-Aminopyrrolidin-1-yl)-3-fluoro-9-(2,3,4,5,6-pentafluorophenyl)-6H-6-oxopyrido[1,2-a]pyrimidine-7-carboxylic acid hydrochloride salt] | 0.39 µg/mL | > 100 µg/mL | > 100 µg/mL | 100 µg/mL | > 100 µg/mL | > 100 µg/mL | 6.2 µg/mL | 6.2 µg/mL | 50 µg/mL | 100 µg/mL | > 100 µg/mL | > 100 µg/mL | > 100 µg/mL | 6.2 µg/mL | 25 µg/mL | 50 µg/mL | > 100 µg/mL | 50 µg/mL | > 100 µg/mL | > 100 µg/mL | MIC values [17]: > 100 µg/mL; MIC values [18]: > 100 µg/mL; MIC values [19]: > 100 µg/mL; MIC values (Pseudomonas cepacia 296I): > 100 µg/mL; MIC values [20]: 50 µg/mL; MIC values [21]: > 100 µg/mL; MIC values [22]: 3.1 µg/mL; MIC values (Escherichia coli JUHL): 6.2 µg/mL; MIC values [23]: 100 µg/mL; MIC values [24]: > 100 µg/mL; MIC values [25]: 50 µg/mL; MIC values [26]: 50 µg/mL |
